Results published in patent US20140296147A1, “METHODS OF TREATING OR PREVENTING BLOOD LOSS DURING SURGERY USING THE SERINE PROTEASE INHIBITOR MDCO-2010” (THE MEDICINES COMPANY, priority 2011, published 2014).
Read-outs that look alike come from different tables or passages of the source. Marks after values point to notes of the source that are not given here.

Key:
plasma kallikrein = plasma kallikrein (Homo sapiens, UniProt P03952); conditions: active-site directed, reversible, no cofactor; cited from earlier work
Sequence of plasma kallikrein (P03952 391-638 limits assumed): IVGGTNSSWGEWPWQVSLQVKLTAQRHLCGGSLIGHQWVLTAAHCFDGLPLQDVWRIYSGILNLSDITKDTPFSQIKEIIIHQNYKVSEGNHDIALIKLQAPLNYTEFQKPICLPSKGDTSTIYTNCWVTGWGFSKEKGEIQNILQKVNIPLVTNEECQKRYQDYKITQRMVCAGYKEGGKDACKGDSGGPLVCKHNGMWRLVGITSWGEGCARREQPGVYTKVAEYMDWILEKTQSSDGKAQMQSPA
Sequence of plasma kallikrein (P03952 20-390 partner limits assumed): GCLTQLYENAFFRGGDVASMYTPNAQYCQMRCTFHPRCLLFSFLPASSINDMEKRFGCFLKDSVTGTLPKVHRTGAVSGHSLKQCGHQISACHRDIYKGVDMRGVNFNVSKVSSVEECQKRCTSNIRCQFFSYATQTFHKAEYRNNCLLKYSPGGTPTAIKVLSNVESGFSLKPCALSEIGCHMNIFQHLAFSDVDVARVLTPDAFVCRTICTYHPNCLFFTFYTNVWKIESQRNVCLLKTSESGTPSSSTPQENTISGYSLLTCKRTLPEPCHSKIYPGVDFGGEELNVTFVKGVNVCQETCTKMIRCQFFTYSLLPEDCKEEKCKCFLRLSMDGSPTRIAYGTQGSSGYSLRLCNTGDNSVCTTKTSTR

activated Protein C = activated Protein C (Homo sapiens, UniProt P04070); conditions: cited from earlier work
Sequence of activated Protein C (P04070 212-461 limits assumed): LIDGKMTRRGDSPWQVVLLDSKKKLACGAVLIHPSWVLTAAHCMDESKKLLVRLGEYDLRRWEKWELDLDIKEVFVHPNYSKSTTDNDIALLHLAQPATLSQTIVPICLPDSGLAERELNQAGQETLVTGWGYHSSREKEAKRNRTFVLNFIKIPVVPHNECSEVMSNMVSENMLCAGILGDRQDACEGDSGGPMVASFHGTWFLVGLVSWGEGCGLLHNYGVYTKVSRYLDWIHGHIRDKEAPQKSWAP
Sequence of activated Protein C (P04070 43-197 partner limits assumed): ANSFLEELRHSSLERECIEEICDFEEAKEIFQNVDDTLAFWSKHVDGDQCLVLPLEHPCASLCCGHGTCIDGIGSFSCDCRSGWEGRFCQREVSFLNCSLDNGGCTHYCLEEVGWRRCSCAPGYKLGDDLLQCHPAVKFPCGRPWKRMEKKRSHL

[1] = test system: intrinsic and extrinsic pathways; assay: Anticoagulant effect: ACT, aPTT and ROTEM coagulation times in CABG patients; assay type: in vivo, human; conditions: five escalating doses, FIG. 3
Method: (§1) A Phase IIa, single-center, double-blind, placebo-controlled dose-escalation study was performed to investigate MDCO-2010 in patients undergoing elective, primary CABG (coronary artery bypass graft) surgery.
(§2) Initial heparin dosing (400 units/kg) and heparin maintenance was guided by the Hepcon HMS, with a kaolin ACT target of 480 seconds. Immediately after heparin bolus, study drug administration was initiated with a loading (bolus) dose followed by a continuous infusion of the maintenance dose via a central venous catheter until sternal closure. Patients were randomized in a 3:1 ratio to receive either one of five MDCO-2010 doses (continuous infusion of 12.5, 25, 62.5, 109 or 219 μg/kg/h maintenance dose; 24 patients) or saline as placebo (8 patients).

plasmin = plasmin (Homo sapiens, UniProt P00747); conditions: active-site directed, reversible, no cofactor; cited from earlier work
Sequence of plasmin (P00747 581-810 limits assumed): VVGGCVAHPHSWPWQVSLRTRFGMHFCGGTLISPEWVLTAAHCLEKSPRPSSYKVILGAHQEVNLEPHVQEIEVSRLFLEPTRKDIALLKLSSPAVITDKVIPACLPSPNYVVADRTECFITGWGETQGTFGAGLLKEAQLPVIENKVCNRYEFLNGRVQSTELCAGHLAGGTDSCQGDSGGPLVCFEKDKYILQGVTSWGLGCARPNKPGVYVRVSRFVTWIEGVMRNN
Sequence of plasmin (P00747 97-580 partner limits assumed): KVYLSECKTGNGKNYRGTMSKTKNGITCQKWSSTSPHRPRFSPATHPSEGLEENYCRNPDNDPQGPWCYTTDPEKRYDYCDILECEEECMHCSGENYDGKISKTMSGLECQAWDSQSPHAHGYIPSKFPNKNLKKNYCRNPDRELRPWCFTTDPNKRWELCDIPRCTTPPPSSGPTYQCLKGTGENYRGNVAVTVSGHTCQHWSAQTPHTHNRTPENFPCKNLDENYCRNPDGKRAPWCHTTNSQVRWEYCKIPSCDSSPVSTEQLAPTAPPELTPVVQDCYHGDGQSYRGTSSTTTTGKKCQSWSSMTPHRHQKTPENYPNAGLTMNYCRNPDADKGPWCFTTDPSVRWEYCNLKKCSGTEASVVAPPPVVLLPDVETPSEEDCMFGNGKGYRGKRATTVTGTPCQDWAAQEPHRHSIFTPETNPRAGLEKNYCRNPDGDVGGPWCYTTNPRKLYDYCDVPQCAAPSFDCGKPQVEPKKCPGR

tPA-induced fibrinolysis = assay: Antifibrinolytic effect: D-dimer generation and tPA-induced lysis in CABG patients; assay type: in vivo, human; conditions: five escalating doses, FIG. 2
Method: as §1, §2

[2] = test system: patients undergoing elective, primary CABG (coronary artery bypass graft) surgery; assay: Phase IIa placebo-controlled dose-escalation study: postoperative blood loss and transfusions; assay type: in vivo, human
Method: as §1
After independent ethics committee approval and written informed consent, thirty two patients underwent CABG surgery (patient characteristics shown in Table 1) through midline sternotomy using minimized extracorporeal circulation (MECC, priming volume of 600 mL).
as §2, with “patients). […]” for “patients).”
loading dose 5 μg/kg, maintenance dose 12.5 μg/kg/h; pump prime 0.02 mg; 3 patients loading dose 11 μg/kg, maintenance dose 25 μg/kg/h; pump prime 0.04 mg; 3 patients loading dose 27 μg/kg, maintenance dose 62.5 μg/kg/h; pump prime 0.09 mg; 6 patients loading dose 47 μg/kg, maintenance dose 109 μg/kg/h; pump prime 0.18 mg; 6 patients loading dose 94 μg/kg, maintenance dose 219 μg/kg/h; pump prime 0.35 mg; 6 patients The loading dose was administered over a five minute period of time in a 10 mL infusion. The maintenance dose was administered as a continuous infusion with a constant flow rate of 23 mL/h for the duration of procedure. MDCO-2010 was also added to the pump prime fluid to the targeted plasma concentration. The pump prime was supplied as a 10 mL load.

coagulation Factor XIa = coagulation Factor XIa (Homo sapiens, UniProt P03951); conditions: cited from earlier work
Sequence of coagulation Factor XIa (P03951 388-625 limits assumed): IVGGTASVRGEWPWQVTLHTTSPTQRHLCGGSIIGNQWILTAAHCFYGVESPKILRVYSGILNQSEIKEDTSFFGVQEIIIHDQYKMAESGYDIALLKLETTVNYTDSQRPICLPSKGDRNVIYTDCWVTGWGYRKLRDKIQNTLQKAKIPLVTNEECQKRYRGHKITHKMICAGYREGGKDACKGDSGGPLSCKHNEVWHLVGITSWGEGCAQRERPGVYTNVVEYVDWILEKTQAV
Sequence of coagulation Factor XIa (P03951 19-387 partner limits assumed): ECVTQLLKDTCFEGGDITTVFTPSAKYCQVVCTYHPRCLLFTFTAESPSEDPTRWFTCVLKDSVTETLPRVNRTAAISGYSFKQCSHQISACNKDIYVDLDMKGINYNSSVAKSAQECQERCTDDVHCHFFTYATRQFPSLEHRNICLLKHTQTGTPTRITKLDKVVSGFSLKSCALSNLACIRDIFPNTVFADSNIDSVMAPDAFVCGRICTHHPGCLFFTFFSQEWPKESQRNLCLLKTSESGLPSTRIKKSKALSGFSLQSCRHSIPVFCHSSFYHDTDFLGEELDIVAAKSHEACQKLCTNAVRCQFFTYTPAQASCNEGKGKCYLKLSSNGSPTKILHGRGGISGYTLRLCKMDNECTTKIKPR

coagulation Factor Xa = coagulation Factor Xa (Homo sapiens, UniProt P00742); conditions: cited from earlier work
Sequence of coagulation Factor Xa (P00742 235-488 limits assumed): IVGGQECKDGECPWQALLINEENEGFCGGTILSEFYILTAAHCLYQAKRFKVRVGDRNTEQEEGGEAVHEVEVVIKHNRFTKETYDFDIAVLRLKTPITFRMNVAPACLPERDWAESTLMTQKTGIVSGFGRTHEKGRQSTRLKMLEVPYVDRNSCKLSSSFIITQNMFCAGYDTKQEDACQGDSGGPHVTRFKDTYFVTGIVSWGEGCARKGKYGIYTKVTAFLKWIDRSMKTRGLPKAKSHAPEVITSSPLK
Sequence of coagulation Factor Xa (P00742 41-179 partner limits assumed): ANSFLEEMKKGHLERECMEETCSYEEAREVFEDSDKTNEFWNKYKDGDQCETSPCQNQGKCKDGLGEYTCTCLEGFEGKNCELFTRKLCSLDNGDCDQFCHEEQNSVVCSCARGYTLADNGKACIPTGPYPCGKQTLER

[3] = Plasma pharmacokinetics of MDCO-2010 (LC/MS/MS, non-compartmental analysis) during CABG surgery; assay type: in vivo, human; conditions: for half-life / clearance / Vd / AUC(0-inf) / AUC(0-t) / Cmax: human, plasma
Method: Nominal blood sampling times for PK analysis were pre-dose (T1, pre-heparin) and at 10 min (pre-CBP), 15 min, 30 min, 60 min (or just before cessation of CPB), at the end of infusion (sternal closure), 15 min, 30 min, and at 4 hours post-end of infusion. Actual times were calculated for each patient and used for PK analysis.
MDCO-2010 was measured in plasma by liquid chromatography with tandem mass spectrometry (LC/MS/MS).
Plasma concentrations versus time data were analyzed by non-compartmental analysis using the program WinNonlin Professional Version 5.3 (Pharsight, Mountain View, Calif., USA). Actual sampling times were used for the evaluation.
The following parameters were determined: • AUC0-tlast=area under the MDCO-2010 concentration versus time curve from dosing time to the last time point with a value above the lower limit of quantitation (LLOQ), calculated by linear/log trapezoidal method which uses the linear trapezoidal rule up to Cmax and log trapezoidal rule for the remainder of the curve • AUC0-inf=area under the concentration-time curve from […]; calculated as AUC0-tlast+AUCexpol, where AUCexpol=Clast/λ • Css=steady-state plasma concentration calculated by taking the average of the concentrations in T4 to T7 • Cmax=maximum concentration, directly taken from measured values • t1/2=apparent terminal elimination half-life determined by log-linear regression • CL=total body clearance • Vss=volume of distribution at steady state
Descriptive statistics (number of subjects, arithmetic means, standard deviation (SD), geometric means, medians, minimum and maximum values) were determined for all PK variables, separately for each treatment. Values below the LLOQ of the assay were taken as zero for descriptive statistics of concentrations. For AUC calculations, values below LLOQ were taken as zero if no quantifiable concentrations were found before the value, as missing if quantifiable concentrations were found before and after the value, and also as missing if quantifiable concentrations were found before, but not after the value. Mean (±SD) concentration time plots were provided for each treatment group using linear and semi-logarithmic scale.
Dose proportionality was assessed by the power model using SAS Version 9 (SAS Institute Inc., Cary, N.C.).
The mean values for PK parameters per dose group (mean (±SD) pharmacokinetic variables of MDCO-2010 administered via IV infusion during CABG surgery based on non-compartmental analysis) are summarized in Table 3.

[4] = test system: patients undergoing elective, primary CABG (coronary artery bypass graft) surgery; assay: Safety markers and safety profile in CABG patients; assay type: in vivo, human
Method: as §1, §2

[5] = Cohort 1 (N = 3): loading dose 5 μg/kg, maintenance dose 12.5 μg/kg/h
[6] = Cohort 2 (N = 3): loading dose 11 μg/kg, maintenance dose 25 μg/kg/h
[7] = Cohort 3 (N = 6): loading dose 27 μg/kg, maintenance dose 62.5 μg/kg/h
[8] = Cohort 4 (N = 6): loading dose 47 μg/kg, maintenance dose 109 μg/kg/h
[9] = Cohort 5 (N = 6): loading dose 94 μg/kg, maintenance dose 219 μg/kg/h, 1 patient received additional heparin without protamine reversal
[10] = Cohort 1, mean dose 1.88 mg, IV infusion during CABG surgery, mean
[11] = Cohort 2, mean dose 4.99 mg, IV infusion during CABG surgery, mean
[12] = Cohort 3, mean dose 12.33 mg, IV infusion during CABG surgery, mean
[13] = Cohort 4, mean dose 19.57 mg, IV infusion during CABG surgery, mean
[14] = Cohort 5, mean dose 38.01 mg, IV infusion during CABG surgery, mean

Css [3, 10]: 50.06 ng/mL
Css [3, 11]: 96.31 ng/mL
Css [3, 12]: 268.21 ng/mL
Css [3, 13]: 478.86 ng/mL
Css [3, 14]: 1009.17 ng/mL
plasma levels during the infusion ([3]; continuous infusion, FIG. 1): stable
mean MDCO-2010 plasma concentrations versus dose ([3]; five escalating doses, CABG patients): linear dose-proportional increase
half-life ([3]; intravenous, following an approximately 100 minute infusion period, all cohorts, read-out: mean value for the elimination half-life): ~1.38 h
half-life ([3]; intravenous, after end of infusion, CABG patients, read-out: terminal half-life (converted)): 1 h
half-life ([3]; intravenous, range over cohorts, read-out: elimination half-life, range): 1.02 to 1.7 h
clearance ([3]; intravenous, 1.88 mg total dose, read-out: Total body clearance): 220 ± 78 mL/min
clearance ([3]; intravenous, 38.01 mg total dose, read-out: Total body clearance): 153 ± 19 mL/min
Vd ([3]; intravenous, all dose levels, read-out: Volume of distribution (Vss), range): 12 to 17 L
half-life ([3]; iv, 1.88 mg, Cohort 1, mean dose 1.88 mg, IV infusion during CABG surgery, mean, read-out: t1/2): 1.02 h
half-life ([3]; iv, 4.99 mg, Cohort 2, mean dose 4.99 mg, IV infusion during CABG surgery, mean, read-out: t1/2): 1.21 h
half-life ([3]; iv, 12.33 mg, Cohort 3, mean dose 12.33 mg, IV infusion during CABG surgery, mean, read-out: t1/2): 1.26 h
half-life ([3]; iv, 19.57 mg, Cohort 4, mean dose 19.57 mg, IV infusion during CABG surgery, mean, read-out: t1/2): 1.74 h
half-life ([3]; iv, 38.01 mg, Cohort 5, mean dose 38.01 mg, IV infusion during CABG surgery, mean, read-out: t1/2): 1.72 h
AUC(0-inf) [3, 10]: 152 ng·h/mL
AUC(0-t) [3, 10]: 125 ng·h/mL
Cmax [3, 10]: 54.8 ng/mL
clearance ([3]; Cohort 1, mean dose 1.88 mg, IV infusion during CABG surgery, mean, read-out: Cl): 220 mL/min
Vd ([3]; Cohort 1, mean dose 1.88 mg, IV infusion during CABG surgery, mean, read-out: Vss): 12.7 L
AUC(0-inf) [3, 11]: 334 ng·h/mL
AUC(0-t) [3, 11]: 278 ng·h/mL
Cmax [3, 11]: 114 ng/mL
clearance ([3]; Cohort 2, mean dose 4.99 mg, IV infusion during CABG surgery, mean, read-out: Cl): 263 mL/min
Vd ([3]; Cohort 2, mean dose 4.99 mg, IV infusion during CABG surgery, mean, read-out: Vss): 16.1 L
AUC(0-inf) [3, 12]: 991 ng·h/mL
AUC(0-t) [3, 12]: 905 ng·h/mL
Cmax [3, 12]: 288 ng/mL
clearance ([3]; Cohort 3, mean dose 12.33 mg, IV infusion during CABG surgery, mean, read-out: Cl): 199 mL/min
Vd ([3]; Cohort 3, mean dose 12.33 mg, IV infusion during CABG surgery, mean, read-out: Vss): 12.3 L
AUC(0-inf) [3, 13]: 1880 ng·h/mL
AUC(0-t) [3, 13]: 1640 ng·h/mL
Cmax [3, 13]: 564 ng/mL
clearance ([3]; Cohort 4, mean dose 19.57 mg, IV infusion during CABG surgery, mean, read-out: Cl): 179 mL/min
Vd ([3]; Cohort 4, mean dose 19.57 mg, IV infusion during CABG surgery, mean, read-out: Vss): 17.4 L
AUC(0-inf) [3, 14]: 4060 ng·h/mL
AUC(0-t) [3, 14]: 3620 ng·h/mL
Cmax [3, 14]: 1150 ng/mL
clearance ([3]; Cohort 5, mean dose 38.01 mg, IV infusion during CABG surgery, mean, read-out: Cl): 153 mL/min
Vd ([3]; Cohort 5, mean dose 38.01 mg, IV infusion during CABG surgery, mean, read-out: Vss): 15.1 L
plasma levels abated ([3]; within 4 hours of the end of infusion): 85%
SMILES: N=C(N)c1ccc(CNC(=O)[C@H](Cc2cccc(CN)c2)NC(=O)[C@@H](CCCc2ccccc2)NS(=O)(=O)Cc2cccc(C(=O)O)c2)cc1 [MDCO-2010, 3-({1-[2-(3-Aminomethyl-phenyl)-1-(4-carbamimidoyl-benzylcarbamoyl)-ethylcarbamoyl]-4-phenyl-butylsulfamoyl}-methyl)-benzoic acid]
inhibition of plasma kallikrein (plasma kallikrein): potent inhibitor
inhibition of activated Protein C (activated Protein C): inhibits
ACT, aPTT and rotation thrombelastometry (ROTEM) coagulation times [1]: dose-related prolongation
inhibition of plasmin (plasmin): potent inhibitor
antifibrinolytic effect (suppression of D-dimer generation and inhibition of tPA-induced lysis) (tPA-induced fibrinolysis): dose-dependent antifibrinolytic effect
12 hour postoperative chest tube drainage, median ± SD [2, 5]: 450 ± 172 mL
Average number of transfusions per patient [2, 5]: 0
Patients receiving transfusions [2, 5]: 0/3
12 hour postoperative chest tube drainage, median ± SD [2, 6]: 595 ± 125 mL
Average number of transfusions per patient [2, 6]: 0
Patients receiving transfusions [2, 6]: 0/3
Average number of transfusions per patient [2, 7]: 0.33
Patients receiving transfusions [2, 7]: 1/6
Average number of transfusions per patient [2, 8]: 0.17
Patients receiving transfusions [2, 8]: 1/6
Average number of transfusions per patient [2, 9]: 0.67†
Patients receiving transfusions [2, 9]: 2/6†
Chest tube drainage, incidence and volume of RBC transfusions vs. placebo ([2]; MDCO-2010 vs. placebo): significantly lower
inhibition of coagulation Factor XIa (coagulation Factor XIa): inhibits
inhibition of coagulation Factor Xa (coagulation Factor Xa): inhibits
troponin T, CK-MB, prothrombin fragment F1+2, interleukins IL-6 and IL-10, ALAT, ASAT, serum creatinine vs. placebo ([4]; patients treated with MDCO-2010 vs. placebo, results not shown): No differences
safety profile of escalating doses ([4]; primary CABG surgery, first-in-patient study): acceptable safety profile
